Data on 1 compound can be found in patent publication US6468969B1, “Inhibition of HIV-1 replication using d-amino acid peptides” (priority 1997, dated 2002).

SMILES strings stand for the structures.

The target in this data set is proteinase K (Parengyodontium album, UniProt P06873). As to the kind of experiment: Proteinase K digestion of peptide-TAR RNA photocrosslink products. Particulars: very vigorous proteinase K digestion. The method, then:
For photochemical reactions, RNA duplex was prepared by hybridizing two strands ^24. Strand 1 of the duplex was 5′-end labeled with ^32P. Preformed RNA duplexes(0.02 μM) in the absence or presence of the peptide (0.1 μM) were irradiated ([…]) and analyzed by denaturing gels as described in Wang et al., Biochemistry 35, 6491-6499 (1996).

proteinase K, sequence (P06873 106-384): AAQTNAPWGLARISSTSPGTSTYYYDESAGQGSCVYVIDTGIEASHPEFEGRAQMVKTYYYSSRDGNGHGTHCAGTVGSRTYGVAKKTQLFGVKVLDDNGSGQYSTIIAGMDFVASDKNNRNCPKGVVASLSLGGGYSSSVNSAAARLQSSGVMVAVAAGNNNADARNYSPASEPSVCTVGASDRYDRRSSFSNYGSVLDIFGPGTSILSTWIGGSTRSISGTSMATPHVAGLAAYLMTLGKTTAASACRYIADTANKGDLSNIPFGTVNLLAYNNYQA

On to `CC[C@@H](C)[C@@H](NC(=O)CNC(=O)[C@@H](CC(C)C)NC(=O)[C@@H](C)NC(=O)[C@@H](CCCCN)NC(=O)[C@H](NC(=O)[C@H](NC(=O)[C@@H](Cc1ccccc1)NC(=O)[C@H](N)CS)[C@H](C)O)[C@H](C)O)C(=O)N[C@H](CO)C(=O)N[C@H](Cc1ccc(O)cc1)C(=O)NCC(=O)N[C@H](CCCNC(=N)N)C(=O)N[C@H](CCCCN)C(=O)N[C@H](CCCCN)C(=O)N[C@H](CCCNC(=N)N)C(=O)N[C@H](CCCNC(=N)N)C(=O)N[C@H](CCC(N)=O)C(=O)N[C@H](CCCNC(=N)N)C(=O)N[C@H](CCCNC(=N)N)C(=O)N[C@H](CCCNC(=N)N)C(=O)N1CCC[C@@H]1C(=O)N1CCC[C@@H]1C(=O)N[C@H](CCC(N)=O)C(=O)NCC(=O)N[C@H](CO)C(=O)N[C@H](CCC(N)=O)C(=O)N[C@@H](C(=O)N[C@H](Cc1c[nH]cn1)C(=O)N[C@H](CCC(N)=O)C(=O)N[C@@H](C(=O)N[C@H](CO)C(=O)N[C@H](CC(C)C)C(=O)N[C@H](CO)C(=O)N[C@H](CCCCN)C(=O)N[C@H](CCC(N)=O)C(=O)O)C(C)C)[C@H](C)O` [D-Tat (37-72) peptide, D-Cys-D-Phe-D-Thr-D-Thr-D-Lys-D-Ala-D-Leu-D-Gly-D-Ile-D-Ser-D-Tyr-D-Gly-D-Arg-D-Lys-D-Lys-D-Arg-D-Arg-D-Gln-D-Arg-D-Arg-D-Arg-D-Pro-D-Pro-D-Gln-D-Gly-D-Ser-D-Gln-D-Thr-D-His-D-Gln-D-Val-D-Ser-D-Leu-D-Ser-D-Lys-D-Gln], for which the “protease stability of peptide-RNA crosslink products” value was “completely stable”.
